# Patent US20100298141A1, “SUBSTITUTED PYRIDINE N-OXIDE HERBICIDES” (E. I. DU PONT DE NEMOURS AND COMPANY, priority 2007, published 2010)
# Columns and labels:
# corn [1] = assay: Test A pre-/postemergence greenhouse test; format: in vivo, Zea mays; conditions: for Corn plant response rating: 0 to 100 scale
# In short: (§1)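 Visual injury ratings against untreated controls, taken roughly ten days after treatment in greenhouse. Plants were sprayed postemergence at one- to two-leaf stage (2–10 cm tall); at the same time, seeded loam/sand soil received a directed preemergence spray. Formulation: non-phytotoxic solvent mixture with surfactant.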
# pigweed = assay: Test C pre-/postemergence test; format: in vivo, Amaranthus retroflexus
# In short: (§2)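 Compounds in a non-phytotoxic solvent with surfactant applied preemergence to seeded pots and, at the same time, postemergence to plants 2–18 cm tall (1- to 4-leaf stage). Paddy tests: pots flooded to 3 cm, compound applied into the water, depth held throughout.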
# johnsongrass = assay: Test C pre-/postemergence test; format: in vivo, Sorghum halepense
# In short: as §2
# umbrella sedge = assay: Test C flooded paddy test; format: in vivo, Cyperus difformis; conditions: Flood
# In short: (§3)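 Test compounds are applied straight into paddy water held 3 cm above the soil surface, with that flood maintained for the whole test. After 13 to 15 days in the greenhouse, each species is scored visually relative to controls.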
# yellow nutsedge = assay: Test C pre-/postemergence test; format: in vivo, Cyperus esculentus
# In short: as §2
# Italian ryegrass = assay: Test C pre-/postemergence test; format: in vivo, Lolium multiflorum
# In short: as §2
# green foxtail = assay: Test C pre-/postemergence test; format: in vivo, Setaria viridis
# In short: as §2
# bermudagrass = assay: Test C pre-/postemergence test; format: in vivo, Cynodon dactylon
# In short: as §2
# corn [2] = assay: Test C pre-/postemergence test; format: in vivo, Zea mays
# In short: as §2
# crabgrass [3] = assay: Test A pre-/postemergence greenhouse test; format: in vivo, Digitaria sanguinalis; conditions: for Crabgrass, Large plant response rating: 0 to 100 scale
# In short: as §1
# Goosegrass = assay: Test C pre-/postemergence test; format: in vivo, Eleusin indica
# In short: as §2
# barnyardgrass [4] = assay: Test C flooded paddy test; format: in vivo, Echinochloa crus-galli; conditions: Flood
# In short: as §3
# soybean = assay: Test C pre-/postemergence test; format: in vivo, Glycine max
# In short: as §2
# barnyardgrass [5] = assay: Test A pre-/postemergence greenhouse test; format: in vivo, Echinochloa crus-galli; conditions: for Barnyardgrass plant response rating: 0 to 100 scale
# In short: as §1
# velvetleaf = assay: Test A pre-/postemergence greenhouse test; format: in vivo, Abutilon theophrasti; conditions: for Velvetleaf plant response rating: 0 to 100 scale
# In short: as §1
# duck salad = assay: Test C flooded paddy test; format: in vivo, Heteranthera limosa; conditions: Flood
# In short: as §3
# crabgrass [6] = assay: Test C pre-/postemergence test; format: in vivo, Digitaria sanguinalis
# In short: as §2
# [7] = Postemergence, 125 g ai/ha, 0 to 100 scale where 0 is no effect and 100 is complete control
# [8] = Postemergence, 500 g ai/ha, 0 is no effect, 100 is complete control
# [9] = Preemergence, 125 g ai/ha, 0 no effect, 100 complete control
# [10] = Preemergence, 500 g ai/ha, 0 no effect, 100 complete control
# [11] = 62 g ai/ha, Preemergence, scale 0 to 100
# [12] = 125 g ai/ha, preemergence, scale 0 (no effect) to 100 (complete control)
# [13] = Preemergence, 31 g ai/ha, scale 0 to 100 (0 no effect, 100 complete control)
# [14] = preemergence, 250 g ai/ha, scale 0 (no effect) to 100 (complete control)
# [15] = 62 g ai/ha, scale 0 to 100 (0 no effect, 100 complete control)
# [16] = 250 g ai/ha, scale 0 to 100, 0 no effect, 100 complete control, 13 to 15 days
smiles,measurement,setting,value
C#CCOc1c(CS(=O)(=O)c2cccc[n+]2[O-])c(C(F)(F)F)nn1C [Compound 103],"Plant response rating, Corn",corn [1]; [7],0
same,Corn plant response rating,corn [1]; [8],60
same,Corn plant response rating,corn [1]; [9],0
same,Corn plant response rating,corn [1]; [10],60
same,Pigweed plant response rating,pigweed; [11],100
same,Pigweed plant response rating,pigweed; [12],100
same,"Plant response rating, Pigweed",pigweed; [13],60
same,Pigweed plant response rating,pigweed; [14],100
same,Johnsongrass plant response rating,johnsongrass; [11],100
same,Johnsongrass plant response rating,johnsongrass; [12],100
same,"Plant response rating, Johnsongrass",johnsongrass; [13],30
same,Johnsongrass plant response rating,johnsongrass; [14],100
same,"Plant response rating, Sedge, Umbrella",umbrella sedge; [15],0
same,"Plant response rating, Sedge, Umbrella",umbrella sedge; [16],55
same,"Nutsedge, Yellow plant response rating",yellow nutsedge; [11],70
same,"Nutsedge, Yellow plant response rating",yellow nutsedge; [12],85
same,"Plant response rating, Nutsedge, Yellow",yellow nutsedge; [13],0
same,"Nutsedge, Yellow plant response rating",yellow nutsedge; [14],85
same,"Ryegrass, Italian plant response rating",Italian ryegrass; [11],50
same,"Ryegrass, Italian plant response rating",Italian ryegrass; [12],55
same,"Plant response rating, Ryegrass, Italian",Italian ryegrass; [13],0
same,"Ryegrass, Italian plant response rating",Italian ryegrass; [14],60
same,"Foxtail, Green plant response rating",green foxtail; [11],98
same,"Foxtail, Green plant response rating",green foxtail; [12],100
same,"Plant response rating, Foxtail, Green",green foxtail; [13],60
same,"Foxtail, Green plant response rating",green foxtail; [14],100
same,Bermudagrass plant response rating,"bermudagrass; 62 g ai/ha, Preemergence, scale 0 to 100 (0 no effect, 100 complete control)",100
same,Bermudagrass plant response rating,bermudagrass; [12],100
same,"Plant response rating, Bermudagrass",bermudagrass; [13],40
same,Bermudagrass plant response rating,bermudagrass; [14],100
same,Corn plant response rating,corn [2]; [11],0
same,Corn plant response rating,corn [2]; [12],65
same,"Plant response rating, Corn",corn [2]; [13],0
same,Corn plant response rating,corn [2]; [14],95
same,"Plant response rating, Crabgrass, Large",crabgrass [3]; [7],70
same,"Crabgrass, Large plant response rating",crabgrass [3]; [8],90
same,"Crabgrass, Large plant response rating",crabgrass [3]; [9],70
same,"Crabgrass, Large plant response rating",crabgrass [3]; [10],100
same,Goosegrass plant response rating,Goosegrass; [11],100
same,Goosegrass plant response rating,Goosegrass; [12],100
same,"Plant response rating, Goosegrass",Goosegrass; [13],50
same,Goosegrass plant response rating,Goosegrass; [14],100
same,"Plant response rating, Barnyardgrass",barnyardgrass [4]; [15],0
same,"Plant response rating, Barnyardgrass",barnyardgrass [4]; [16],0
same,Soybean plant response rating,soybean; [11],0
same,Soybean plant response rating,soybean; [12],10
same,"Plant response rating, Soybean",soybean; [13],0
same,Soybean plant response rating,soybean; [14],50
same,"Plant response rating, Barnyardgrass",barnyardgrass [5]; [7],80
same,Barnyardgrass plant response rating,barnyardgrass [5]; [8],90
same,Barnyardgrass plant response rating,barnyardgrass [5]; [9],90
same,Barnyardgrass plant response rating,barnyardgrass [5]; [10],100
same,"Plant response rating, Velvetleaf",velvetleaf; [7],40
same,Velvetleaf plant response rating,velvetleaf; [8],70
same,Velvetleaf plant response rating,velvetleaf; [9],20
same,Velvetleaf plant response rating,velvetleaf; [10],80
same,"Plant response rating, Ducksalad",duck salad; [15],20
same,"Plant response rating, Ducksalad",duck salad; [16],70
same,"Crabgrass, Large plant response rating",crabgrass [6]; [11],98
same,"Crabgrass, Large plant response rating",crabgrass [6]; [12],100
same,"Plant response rating, Crabgrass, Large",crabgrass [6]; [13],90
same,"Crabgrass, Large plant response rating",crabgrass [6]; [14],100
